The text below walks through data of patent US20260102501A1, “ANTI-CANCER NUCLEAR HORMONE RECEPTOR-TARGETING COMPOUNDS” (Nuvation Bio Inc., priority 2022, published 2026).

In one assay the test system is LNCap cells. The experiment in a line: Cell viability assay (CellTiterGlo). The assay is classed as cell-based. Particulars: Homo sapiens, 144 h, read-out: LNCap (IC50, nM).
Another assay deals with T47D cells. The experiment in a line: Cell viability assay (CellTiterGlo). The class given is cell-based. To be noted: Homo sapiens, 144 h, read-out: T47D (IC50, nM).
For assay [1], the target named is T1, Progesterone Receptor (PR)-LBD and coactivator peptide (Homo sapiens, UniProt P06401).
T1 sequence (P06401 679-913 limits assumed): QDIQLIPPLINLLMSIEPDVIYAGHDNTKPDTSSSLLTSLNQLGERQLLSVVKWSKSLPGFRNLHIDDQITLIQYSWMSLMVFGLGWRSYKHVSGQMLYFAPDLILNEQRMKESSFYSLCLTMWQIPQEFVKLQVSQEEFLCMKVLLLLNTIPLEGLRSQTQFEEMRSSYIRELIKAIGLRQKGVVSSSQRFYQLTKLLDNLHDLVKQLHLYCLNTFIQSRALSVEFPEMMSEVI
The experiment in a line: PR coactivator antagonist assay. To be noted: 2.5 nM PR-LBD, 10 nM progesterone-induced fluorescence response.

Another assay has as its system IEC6 cells. The experiment in a line: Cell viability assay (CellTiterGlo). To be noted: Rattus norvegicus, IEC-6, 144 h, read-out: IEC-6 (IC50, nM).
In assay [2] the target is T2, AR (cytosol from LnCaP cells) (Homo sapiens, UniProt P10275, T878A).
T2 sequence (P10275 1-920 T878A): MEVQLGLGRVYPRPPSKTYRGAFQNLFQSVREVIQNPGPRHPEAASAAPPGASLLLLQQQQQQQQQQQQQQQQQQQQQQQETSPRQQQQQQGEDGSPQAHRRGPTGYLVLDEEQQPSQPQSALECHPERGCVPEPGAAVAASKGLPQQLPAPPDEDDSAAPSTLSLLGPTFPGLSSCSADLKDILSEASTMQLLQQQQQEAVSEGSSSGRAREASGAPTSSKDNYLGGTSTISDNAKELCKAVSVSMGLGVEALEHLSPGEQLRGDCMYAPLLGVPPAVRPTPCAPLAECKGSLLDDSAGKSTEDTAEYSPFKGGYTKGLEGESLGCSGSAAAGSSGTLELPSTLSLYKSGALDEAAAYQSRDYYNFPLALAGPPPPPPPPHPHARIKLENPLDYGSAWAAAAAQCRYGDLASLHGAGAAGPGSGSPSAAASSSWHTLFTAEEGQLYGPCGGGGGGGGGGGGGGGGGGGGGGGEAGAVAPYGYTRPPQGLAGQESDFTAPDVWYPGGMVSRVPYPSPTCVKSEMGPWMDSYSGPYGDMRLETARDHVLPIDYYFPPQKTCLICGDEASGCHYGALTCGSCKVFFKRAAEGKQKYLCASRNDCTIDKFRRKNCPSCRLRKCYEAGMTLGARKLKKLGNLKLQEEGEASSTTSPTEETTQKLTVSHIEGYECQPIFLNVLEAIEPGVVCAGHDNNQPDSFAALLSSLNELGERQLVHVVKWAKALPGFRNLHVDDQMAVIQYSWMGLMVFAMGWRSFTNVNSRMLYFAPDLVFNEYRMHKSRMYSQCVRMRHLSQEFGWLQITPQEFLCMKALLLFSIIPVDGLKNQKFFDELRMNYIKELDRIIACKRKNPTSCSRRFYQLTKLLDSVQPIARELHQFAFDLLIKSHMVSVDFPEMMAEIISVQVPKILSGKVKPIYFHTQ
The experiment in a line: AR binding assay (3H-R1881 displacement).
Experimental: The plate was then centrifuged at 3000 rpm for 30 minutes at 4° C.

Assay [3] addresses T3, ligand binding domain of the glucocorticoid receptor (HEK293 cells stably expressing) (Homo sapiens, UniProt P04150).
T3 sequence (P04150 524-758 limits assumed): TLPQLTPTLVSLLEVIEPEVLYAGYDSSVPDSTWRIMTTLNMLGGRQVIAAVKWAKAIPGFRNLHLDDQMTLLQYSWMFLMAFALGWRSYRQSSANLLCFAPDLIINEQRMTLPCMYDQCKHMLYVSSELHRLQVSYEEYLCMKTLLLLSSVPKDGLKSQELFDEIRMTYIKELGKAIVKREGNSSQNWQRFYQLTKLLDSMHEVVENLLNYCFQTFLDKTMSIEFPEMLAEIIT
Kind of assay: GR antagonism assay (luciferase reporter).

Assay [4] addresses T4, GR (cytosol from IM-9 cells) (Homo sapiens, UniProt P04150).
T4 sequence (P04150 1-777): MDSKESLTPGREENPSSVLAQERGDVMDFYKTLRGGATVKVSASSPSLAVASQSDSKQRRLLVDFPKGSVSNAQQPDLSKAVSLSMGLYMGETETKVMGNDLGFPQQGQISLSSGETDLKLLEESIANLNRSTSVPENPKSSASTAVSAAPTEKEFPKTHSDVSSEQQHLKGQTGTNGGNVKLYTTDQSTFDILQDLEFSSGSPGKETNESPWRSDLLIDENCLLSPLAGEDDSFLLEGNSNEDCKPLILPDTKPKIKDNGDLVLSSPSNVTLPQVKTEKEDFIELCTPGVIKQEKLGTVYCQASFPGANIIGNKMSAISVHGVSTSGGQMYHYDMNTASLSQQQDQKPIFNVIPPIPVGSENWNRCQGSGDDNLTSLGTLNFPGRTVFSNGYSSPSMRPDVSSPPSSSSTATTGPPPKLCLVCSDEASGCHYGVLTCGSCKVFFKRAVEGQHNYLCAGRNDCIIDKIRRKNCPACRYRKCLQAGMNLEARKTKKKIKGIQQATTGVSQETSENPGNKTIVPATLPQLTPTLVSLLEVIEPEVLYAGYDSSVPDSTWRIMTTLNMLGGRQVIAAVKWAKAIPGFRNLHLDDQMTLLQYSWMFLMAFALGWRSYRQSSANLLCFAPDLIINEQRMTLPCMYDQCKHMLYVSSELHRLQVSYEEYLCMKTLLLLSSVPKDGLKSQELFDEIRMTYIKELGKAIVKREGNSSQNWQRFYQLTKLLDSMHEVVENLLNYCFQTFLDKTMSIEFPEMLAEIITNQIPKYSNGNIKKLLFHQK
The experiment in a line: GR binding assay (3H-Dexamethasone displacement).

Assay [5] has as its target T5, Progesterone PR-B receptors from human breast carcinoma T47D cells (Homo sapiens, UniProt P06401).
T5 sequence (P06401 1-933): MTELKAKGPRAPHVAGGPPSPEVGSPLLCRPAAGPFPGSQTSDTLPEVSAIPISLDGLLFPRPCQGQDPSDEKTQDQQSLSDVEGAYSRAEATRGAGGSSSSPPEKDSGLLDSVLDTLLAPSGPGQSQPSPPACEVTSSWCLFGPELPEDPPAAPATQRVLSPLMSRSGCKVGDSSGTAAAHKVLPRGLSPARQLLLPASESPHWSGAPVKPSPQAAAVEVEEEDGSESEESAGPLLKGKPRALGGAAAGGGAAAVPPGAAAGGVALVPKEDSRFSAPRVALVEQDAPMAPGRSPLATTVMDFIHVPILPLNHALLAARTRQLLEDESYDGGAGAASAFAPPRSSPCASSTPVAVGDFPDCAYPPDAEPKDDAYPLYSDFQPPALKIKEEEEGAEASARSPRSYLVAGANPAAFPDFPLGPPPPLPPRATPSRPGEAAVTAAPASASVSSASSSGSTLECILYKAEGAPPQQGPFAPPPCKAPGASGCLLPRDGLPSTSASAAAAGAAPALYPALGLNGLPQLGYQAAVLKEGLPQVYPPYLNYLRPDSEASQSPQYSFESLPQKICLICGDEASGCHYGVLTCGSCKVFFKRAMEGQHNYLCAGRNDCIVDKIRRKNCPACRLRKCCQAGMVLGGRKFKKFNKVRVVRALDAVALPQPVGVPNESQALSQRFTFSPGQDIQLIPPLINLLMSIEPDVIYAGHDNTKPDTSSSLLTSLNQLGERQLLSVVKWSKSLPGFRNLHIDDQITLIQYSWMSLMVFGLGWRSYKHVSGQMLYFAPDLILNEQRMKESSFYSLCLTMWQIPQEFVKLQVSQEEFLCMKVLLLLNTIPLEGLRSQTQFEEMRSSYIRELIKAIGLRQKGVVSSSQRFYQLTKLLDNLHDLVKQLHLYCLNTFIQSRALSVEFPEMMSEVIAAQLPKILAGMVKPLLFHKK
The experiment in a line: PR binding assay ([3H] Progesterone displacement).

Bounds are passed on as bounds.

For `CC[C@@]1(O)C(=O)OCc2c1cc1n(c2=O)Cc2cc3c(CN4CCN(C)CC4)c(OC(=O)N4CCN(CCCCCCN(C)c5ccc([C@H]6C[C@@]7(C)[C@@H](CC[C@]7(OC(C)=O)C(C)=O)[C@@H]7CCC8=CC(=O)CCC8=C76)cc5)CC4)ccc3nc2-1` [Compound 5, (S)-4-Ethyl-4-hydroxy-10-((4-methylpiperazin-1-yl)methyl)-3,14-dioxo-3,4,12,14-tetrahydro-1H-pyrano[3′,4′:6,7]indolizino[1,2-b]quinolin-9-yl 4-(6-((4-((8S,11R,13S,14S,17R)-17-acetoxy-17-acetyl-13-methyl-3-oxo-2,3,6,7,8,11,12,13,14,15,16,17-dodecahydro-1H-cyclopenta[a]phenanthren-11-yl)phenyl)(methyl)amino)hexyl)piperazine-1-carboxylate], the IC50 in the assay with LNCap cells was 101 to 1000 nM; with T47D cells, 101 to 1000 nM; in the assay with IEC6 cells, greater than 1000 nM; in assay [2], 10 to 100 nM; in assay [3], 10 to 100 nM; in assay [4], less than 10 nM. For the same compound, the IC50 in assay [5] is less than 10 nM. The PR antagonism entry in assay [1] is “a (IC50 =< 10 nM)”.
For the compound `CC[C@@]1(O)C(=O)OCc2c1cc1n(c2=O)Cc2cc3c(CN(C)C)c(OC(=O)N4CCN(CCCCCCCN(C)c5ccc([C@H]6C[C@@]7(C)[C@@H](CC[C@]7(OC(C)=O)C(C)=O)[C@@H]7CCC8=CC(=O)CCC8=C76)cc5)CC4)ccc3nc2-1` [Compound 6, (S)-10-((Dimethylamino)methyl)-4-ethyl-4-hydroxy-3,14-dioxo-3,4,12,14-tetrahydro-1H-pyrano[3′,4′:6,7]indolizino[1,2-b]quinolin-9-yl 4-(7-((4-((8S,11R,13S,14S,17R)-17-acetoxy-17-acetyl-13-methyl-3-oxo-2,3,6,7,8,11,12,13,14,15,16,17-dodecahydro-1H-cyclopenta[a]phenanthren-11-yl)phenyl)(methyl)amino)heptyl)piperazine-1-carboxylate], the IC50 in the assay with LNCap cells was 101 to 1000 nM; with T47D cells, 10 to 100 nM; with IEC6 cells it was greater than 1000 nM; in assay [2], 10 to 100 nM; in assay [3] it was 10 to 100 nM; in assay [4], less than 10 nM. For the same compound, the IC50 in assay [5] is less than 10 nM. For the same compound, in assay [1], the PR antagonism result is “a (IC50 =< 10 nM)”.
As to `CC[C@@]1(O)C(=O)OCc2c1cc1n(c2=O)Cc2cc3c(CN(C)C)c(OC(=O)N4CCN(CCCCCCCCN(C)c5ccc([C@H]6C[C@@]7(C)[C@@H](CC[C@]7(OC(C)=O)C(C)=O)[C@@H]7CCC8=CC(=O)CCC8=C76)cc5)CC4)ccc3nc2-1` [Compound 7, (S)-10-((Dimethylamino)methyl)-4-ethyl-4-hydroxy-3,14-dioxo-3,4,12,14-tetrahydro-1H-pyrano[3′,4′:6,7]indolizino[1,2-b]quinolin-9-yl 4-(8-((4-((8S,11R,13S,14S,17R)-17-acetoxy-17-acetyl-13-methyl-3-oxo-2,3,6,7,8,11,12,13,14,15,16,17-dodecahydro-1H-cyclopenta[a]phenanthren-11-yl)phenyl)(methyl)amino)octyl)piperazine-1-carboxylate], the IC50 with LNCap cells was 101 to 1000 nM; in the assay on T47D cells, 101 to 1000 nM; with IEC6 cells, greater than 1000 nM; in assay [2], 10 to 100 nM; in assay [3], 10 to 100 nM; in assay [4], less than 10 nM. In assay [5], this compound registered an IC50 of less than 10 nM. Moreover, the PR antagonism entry in assay [1] is listed as “a (IC50 =< 10 nM)”.
Regarding `CC[C@@]1(O)C(=O)OCc2c1cc1n(c2=O)Cc2cc3c(CN(C)C)c(OC(=O)N4CCN(CCCCCN(C)c5ccc([C@H]6C[C@@]7(C)[C@@H](CC[C@]7(OC(C)=O)C(C)=O)[C@@H]7CCC8=CC(=O)CCC8=C76)cc5)CC4)ccc3nc2-1` [Compound 8, (S)-10-((Dimethylamino)methyl)-4-ethyl-4-hydroxy-3,14-dioxo-3,4,12,14-tetrahydro-1H-pyrano[3′,4′:6,7]indolizino[1,2-b]quinolin-9-yl 4-(5-((4-((8S,11R,13S,14S,17R)-17-acetoxy-17-acetyl-13-methyl-3-oxo-2,3,6,7,8,11,12,13,14,15,16,17-dodecahydro-1H-cyclopenta[a]phenanthren-11-yl)phenyl)(methyl)amino)pentyl)piperazine-1-carboxylate], the IC50 is 101 to 1000 nM in the assay on LNCap cells; 10 to 100 nM in the assay on T47D cells; 101 to 1000 nM in the assay with IEC6 cells; less than 10 nM in assay [2]; 10 to 100 nM in assay [3]; 10 to 100 nM in assay [4]. The half-maximal inhibitory concentration (IC50) in assay [5] is less than 10 nM. Further, the PR antagonism entry in assay [1] is recorded as “a (IC50 =< 10 nM)”.
